Organism: Rattus norvegicus
Experiment: Open TG-GATES - Regimen: Single
Assay type: toxicity, organism-based, Sprague-Dawley
Set-up: regimen Single, gender Male, age 6 weeks
Details: in vivo, po, route gavage; for KIDNEY_L / KIDNEY_R / KIDNEY_TOTAL: tissue Kidney; for LIVER: tissue Liver; for ALP / ALT / CRE / DBIL / GLC / IP / K / Na / RALB / TBIL / TG / TP / gamma-GTP / BUN / PL: tissue Plasma
[1] = 0 mg/kg, 3 h, dose level Control
[2] = 0 mg/kg, 3 h, tissue Blood, dose level Control
[3] = 0 mg/kg, 6 h, dose level Control
[4] = 0 mg/kg, 6 h, tissue Blood, dose level Control
[5] = 0 mg/kg, 9 h, dose level Control
[6] = 0 mg/kg, 9 h, tissue Blood, dose level Control
[7] = 0 mg/kg, 24 h, dose level Control
[8] = 0 mg/kg, 24 h, tissue Blood, dose level Control
[9] = 3 mg/kg, 3 h, tissue Blood, dose level Low
[10] = 3 mg/kg, 6 h, tissue Blood, dose level Low
[11] = 3 mg/kg, 9 h, tissue Blood, dose level Low
[12] = 3 mg/kg, 24 h, tissue Blood, dose level Low

CNCCC(Oc1ccc(C(F)(F)F)cc1)c1ccccc1.Cl (centres undefined) [FLUOXETINE HYDROCHLORIDE]
TERMINAL_BW [1]: 216.5 g
Bas [2]: 0%
Eos [2]: 1%
Ht [2]: 41.2%
Lym [2]: 72.6%
MCHC [2]: 32.1%
Ret [2]: 8.8%
WBC [2]: 83.4 x10_2/uL
KIDNEY_L [1]: 0.9 g
KIDNEY_R [1]: 0.9 g
KIDNEY_TOTAL [1]: 1.9 g
LIVER [1]: 10.4 g
ALP [1]: 1343.2 IU/L
ALT [1]: 37.8 IU/L
CRE [1]: 0.4 mg/dL
DBIL [1]: 0.014 mg/dL
GLC [1]: 198 mg/dL
IP [1]: 10.1 mg/dL
K [1]: 4.9 meq/L
Na [1]: 138.2 meq/L
RALB [1]: 4.1 g/dL
TBIL [1]: 0.056 mg/dL
TG [1]: 81.8 mg/dL
TP [1]: 5.7 g/dL
gamma-GTP [1]: 0.4 IU/L
TERMINAL_BW [3]: 217.6 g
Bas [4]: 0%
Eos [4]: 1%
Ht [4]: 41.1%
Lym [4]: 72%
MCHC [4]: 32.2%
Ret [4]: 6.9%
WBC [4]: 98.6 x10_2/uL
KIDNEY_L [3]: 1 g
KIDNEY_R [3]: 1 g
KIDNEY_TOTAL [3]: 2.1 g
LIVER [3]: 9.3 g
ALP [3]: 1497.6 IU/L
ALT [3]: 35 IU/L
BUN [3]: 9.2 mg/dL
CRE [3]: 0.4 mg/dL
DBIL [3]: 0.008 mg/dL
GLC [3]: 191 mg/dL
IP [3]: 9.8 mg/dL
K [3]: 5 meq/L
Na [3]: 137.3 meq/L
PL [3]: 131.2 mg/dL
RALB [3]: 3.8 g/dL
TBIL [3]: 0.048 mg/dL
TG [3]: 45.8 mg/dL
TP [3]: 5.3 g/dL
gamma-GTP [3]: 1 IU/L
TERMINAL_BW [5]: 216.1 g
Bas [6]: 0%
Eos [6]: 1%
Ht [6]: 40.2%
Lym [6]: 66.4%
MCHC [6]: 32.5%
Ret [6]: 8%
WBC [6]: 106.4 x10_2/uL
KIDNEY_L [5]: 1 g
KIDNEY_R [5]: 1 g
KIDNEY_TOTAL [5]: 2 g
LIVER [5]: 9.2 g
ALP [5]: 1190.2 IU/L
ALT [5]: 28.6 IU/L
CRE [5]: 0.4 mg/dL
DBIL [5]: 0.01 mg/dL
GLC [5]: 188.2 mg/dL
IP [5]: 10.2 mg/dL
K [5]: 5.1 meq/L
Na [5]: 139 meq/L
PL [5]: 139.8 mg/dL
RALB [5]: 3.8 g/dL
TBIL [5]: 0.042 mg/dL
TG [5]: 63 mg/dL
TP [5]: 5.3 g/dL
gamma-GTP [5]: 0.4 IU/L
TERMINAL_BW [7]: 234.5 g
Bas [8]: 0%
Eos [8]: 1%
Ht [8]: 39.6%
Lym [8]: 76.4%
MCHC [8]: 32.7%
Ret [8]: 7%
WBC [8]: 121.8 x10_2/uL
KIDNEY_L [7]: 1 g
KIDNEY_R [7]: 1 g
KIDNEY_TOTAL [7]: 2 g
ALP [7]: 1409.4 IU/L
ALT [7]: 36.6 IU/L
CRE [7]: 0.4 mg/dL
DBIL [7]: 0.012 mg/dL
GLC [7]: 194.6 mg/dL
IP [7]: 8.1 mg/dL
K [7]: 5.1 meq/L
Na [7]: 138.3 meq/L
RALB [7]: 4 g/dL
TBIL [7]: 0.036 mg/dL
TG [7]: 133.6 mg/dL
TP [7]: 5.6 g/dL
gamma-GTP [7]: 1 IU/L
TERMINAL_BW (3 mg/kg, 3 h, dose level Low): 213 g
Bas [9]: 0%
Eos [9]: 1%
Ht [9]: 41.8%
Lym [9]: 76.6%
MCHC [9]: 32.2%
Ret [9]: 7.7%
WBC [9]: 94.4 x10_2/uL
KIDNEY_L (3 mg/kg, 3 h, dose level Low): 0.9 g
KIDNEY_R (3 mg/kg, 3 h, dose level Low): 0.9 g
KIDNEY_TOTAL (3 mg/kg, 3 h, dose level Low): 1.8 g
LIVER (3 mg/kg, 3 h, dose level Low): 9.9 g
ALP (3 mg/kg, 3 h, dose level Low): 1490.4 IU/L
ALT (3 mg/kg, 3 h, dose level Low): 36.6 IU/L
BUN (3 mg/kg, 3 h, dose level Low): 11.4 mg/dL
CRE (3 mg/kg, 3 h, dose level Low): 0.4 mg/dL
DBIL (3 mg/kg, 3 h, dose level Low): 0.012 mg/dL
GLC (3 mg/kg, 3 h, dose level Low): 209 mg/dL
IP (3 mg/kg, 3 h, dose level Low): 10 mg/dL
K (3 mg/kg, 3 h, dose level Low): 4.5 meq/L
Na (3 mg/kg, 3 h, dose level Low): 138 meq/L
RALB (3 mg/kg, 3 h, dose level Low): 4.1 g/dL
TBIL (3 mg/kg, 3 h, dose level Low): 0.042 mg/dL
TG (3 mg/kg, 3 h, dose level Low): 85 mg/dL
TP (3 mg/kg, 3 h, dose level Low): 5.8 g/dL
gamma-GTP (3 mg/kg, 3 h, dose level Low): 0.2 IU/L
TERMINAL_BW (3 mg/kg, 6 h, dose level Low): 215.1 g
Bas [10]: 0%
Eos [10]: 1%
Ht [10]: 41.2%
Lym [10]: 67.4%
MCH [10]: 22 pg
MCHC [10]: 32.5%
Ret [10]: 6.8%
WBC [10]: 80.2 x10_2/uL
KIDNEY_L (3 mg/kg, 6 h, dose level Low): 0.9 g
KIDNEY_R (3 mg/kg, 6 h, dose level Low): 0.9 g
KIDNEY_TOTAL (3 mg/kg, 6 h, dose level Low): 1.8 g
LIVER (3 mg/kg, 6 h, dose level Low): 9.5 g
ALP (3 mg/kg, 6 h, dose level Low): 1275 IU/L
ALT (3 mg/kg, 6 h, dose level Low): 36.8 IU/L
BUN (3 mg/kg, 6 h, dose level Low): 10.2 mg/dL
CRE (3 mg/kg, 6 h, dose level Low): 0.4 mg/dL
DBIL (3 mg/kg, 6 h, dose level Low): 0.01 mg/dL
GLC (3 mg/kg, 6 h, dose level Low): 196 mg/dL
IP (3 mg/kg, 6 h, dose level Low): 10.3 mg/dL
K (3 mg/kg, 6 h, dose level Low): 4.8 meq/L
Na (3 mg/kg, 6 h, dose level Low): 137.7 meq/L
RALB (3 mg/kg, 6 h, dose level Low): 3.9 g/dL
TBIL (3 mg/kg, 6 h, dose level Low): 0.046 mg/dL
TG (3 mg/kg, 6 h, dose level Low): 100 mg/dL
TP (3 mg/kg, 6 h, dose level Low): 5.4 g/dL
gamma-GTP (3 mg/kg, 6 h, dose level Low): 1 IU/L
TERMINAL_BW (3 mg/kg, 9 h, dose level Low): 212.9 g
Bas [11]: 0%
Eos [11]: 1%
Ht [11]: 40.1%
Lym [11]: 69.2%
MCHC [11]: 32.4%
Ret [11]: 6.5%
WBC [11]: 79.8 x10_2/uL
KIDNEY_L (3 mg/kg, 9 h, dose level Low): 0.9 g
KIDNEY_R (3 mg/kg, 9 h, dose level Low): 0.9 g
KIDNEY_TOTAL (3 mg/kg, 9 h, dose level Low): 1.8 g
LIVER (3 mg/kg, 9 h, dose level Low): 9.3 g
ALP (3 mg/kg, 9 h, dose level Low): 1183.8 IU/L
ALT (3 mg/kg, 9 h, dose level Low): 27.6 IU/L
BUN (3 mg/kg, 9 h, dose level Low): 11.2 mg/dL
CRE (3 mg/kg, 9 h, dose level Low): 0.4 mg/dL
DBIL (3 mg/kg, 9 h, dose level Low): 0.01 mg/dL
GLC (3 mg/kg, 9 h, dose level Low): 195.6 mg/dL
IP (3 mg/kg, 9 h, dose level Low): 10.2 mg/dL
K (3 mg/kg, 9 h, dose level Low): 5 meq/L
Na (3 mg/kg, 9 h, dose level Low): 139.1 meq/L
PL (3 mg/kg, 9 h, dose level Low): 136.8 mg/dL
RALB (3 mg/kg, 9 h, dose level Low): 3.9 g/dL
TBIL (3 mg/kg, 9 h, dose level Low): 0.036 mg/dL
TG (3 mg/kg, 9 h, dose level Low): 59.2 mg/dL
TP (3 mg/kg, 9 h, dose level Low): 5.5 g/dL
gamma-GTP (3 mg/kg, 9 h, dose level Low): 0.4 IU/L
TERMINAL_BW (3 mg/kg, 24 h, dose level Low): 223.4 g
Bas [12]: 0%
Eos [12]: 1%
Ht [12]: 40.2%
Lym [12]: 72%
MCHC [12]: 32.5%
Ret [12]: 7.1%
WBC [12]: 86.8 x10_2/uL
KIDNEY_L (3 mg/kg, 24 h, dose level Low): 1 g
KIDNEY_R (3 mg/kg, 24 h, dose level Low): 1 g
KIDNEY_TOTAL (3 mg/kg, 24 h, dose level Low): 2 g
LIVER (3 mg/kg, 24 h, dose level Low): 10.5 g
ALP (3 mg/kg, 24 h, dose level Low): 1597.4 IU/L
ALT (3 mg/kg, 24 h, dose level Low): 35.6 IU/L
BUN (3 mg/kg, 24 h, dose level Low): 16.4 mg/dL
CRE (3 mg/kg, 24 h, dose level Low): 0.4 mg/dL
DBIL (3 mg/kg, 24 h, dose level Low): 0.01 mg/dL
GLC (3 mg/kg, 24 h, dose level Low): 194.8 mg/dL
IP (3 mg/kg, 24 h, dose level Low): 8 mg/dL
K (3 mg/kg, 24 h, dose level Low): 4.9 meq/L
Na (3 mg/kg, 24 h, dose level Low): 139.1 meq/L
RALB (3 mg/kg, 24 h, dose level Low): 3.9 g/dL
TBIL (3 mg/kg, 24 h, dose level Low): 0.034 mg/dL
TG (3 mg/kg, 24 h, dose level Low): 124.2 mg/dL
TP (3 mg/kg, 24 h, dose level Low): 5.6 g/dL
gamma-GTP (3 mg/kg, 24 h, dose level Low): 1 IU/L
TERMINAL_BW (10 mg/kg, 3 h, dose level Middle): 225.1 g
